# According to patent publication US6656906B1, “Hybrid polypeptides with enhanced pharmacokinetic properties” (Trimeris, Inc., priority 1998, dated 2003):
# Like-named read-outs stand apart in the source and are kept apart here.
# What was measured:
# [1] = Rat pharmacokinetic studies, IV, fluorescence HPLC of plasma; format: in vivo, CD rats; details: IV, male CD rats
# Protocol: 250-300 g male CD rats, double jugular catheter, obtained from Charles River Laboratories were used. Peptides were injected in one jugular catheter in a volume of 200 μl of peptide solution (approximately 3.75 mg/ml), dosing solution concentration was determined using the Edelhoch method, (Edelhoch, 1967, Biochemistry 6:1948-1954) method and adjusted based on animal weight such that each animal received a dose of 2.5 mg/kg). Approximately 250-300 μl of blood was removed at predetermined time intervals (0, 15, 30 min and 1, 2, 4, 6, and 8 hours) and added to EDTA capiject tubes. Plasma was removed from pelleted cells upon centrifugation and either frozen or immediately processed for fluorescence HPLC analysis.
# 100 μl of sample plasma was added to 900 μl of precipitation buffer (acetonitrile, 1.0% TFA, detergent) resulting in precipitation of the majority of plasma proteins. Following centrifugation at 10,000 rpm for 10 min, 400 μl of the supernatant was removed and added to 600 μl of HPLC grade water. Serial dilutions were performed as dictated by concentration of peptide present in each sample in dilution buffer comprised of 40% precipitation buffer and 60% HPLC water. In addition to sample dilutions, serial dilutions of dosing solution were performed in buffer as well as in plasma and used to generate a standard curve relating peak area to known concentration of peptide. This curve was then used to calculate concentration of peptide in plasma taking into account all dilutions performed and quantity injected onto column.
# [2] = Acute toxicity, IV through jugular cannula; format: in vivo; details: 167 mg/kg (highest dose tested), 0.3 ml over 2-3 min
# [3] = Plasma and lymphatic pharmacokinetic analysis after IV bolus; format: in vivo, rats; details: for clearance / AUC(0-inf) / Cmax / AUC(0-t) / half-life: rat, in vivo; for AUC(0-t): read-out: AUC(0-6h); for half-life: iv, IV bolus, read-out: t½, elimination (converted)
# Protocol: For plasma and lymphatic pharmacokinetic analysis of T1249 in rats, T1249 was prepared as a sterile solution in bicarbonate buffer and administered as a single dose, bolus intravenous injection into the lateral tail vain at a dose of […]. Blood was collected from the animal from an in-dwelling jugular catheter. Samples were collected immediately after dosing and at 5, 15, and 30 minutes, and 1, 2, 4, and 6 hours after drug administration. For the analysis of lymphatic fluids, samples were taken immediately before dosing and every 20 minutes for the first six hours after dosing. Lymphatic fluid was collected from a catheter placed directly into the thoracic lymphatic duct as previously described (Kirkpatrick and Silver, 1970, The Journal of Surgical Research 10:147-158).
# [4] = Penetration into cerebrospinal fluid; format: in vivo, rats; details: all measurable time points, single dose; below limit of detection
# [5] = Single-dose administration to primates (SC, IM, IV), plasma pharmacokinetics; format: in vivo, cynomolgus monkeys; details: for bioavailability / half-life / AUC(0-inf) / Cmax / Tmax / AUC(0-t): in vivo; for bioavailability: read-out: FR (%) bioavailability relative to intravenous administration; for half-life: read-out: t½,terminal (converted); for AUC(0-t): read-out: AUC(0-24)
# Protocol: A washout period of at least three days separated each dosing day. […] The actual milligram amount of test article was calculated using the peptide content that was determined for the batch administered.
# Endpoints for analysis included cageside observations, physical examinations and body weight. For the IV phase of the study, blood samples were collected into heparinized tubes at the following time points: immediately after dosing, 0.25, 0.5, 1.5, 3, 6, 12, and 24 hours after dosing. For the IM and SC phases of the study blood samples were collected in heparinized tubes from each animal at the following time points: 0.5, 1, 2, 3, 6, 12, and 24 hours after dosing. Plasma samples were prepared within one hour of collection and flash frozen in liquid nitrogen. Samples analysis was performed using a PcAb ECLIA assay (Blackburn, G. et al., 1991, Clin. Chem. 37:1534-1539; Deaver, D., 1995, Nature 377:758).
# [6] = cynomolgus monkey, IM (0.8 mg/kg)
# [7] = cynomolgus monkey, IV (0.8 mg/kg)
# [8] = cynomolgus monkey, SC (0.4 mg/kg)
# [9] = cynomolgus monkey, SC (0.8 mg/kg)
# [10] = cynomolgus monkey, SC (1.6 mg/kg)
compound,measurement,setting,value
CC[C@H](C)[C@H](NC(=O)[C@H](CCC(N)=O)NC(=O)[C@H](C)NC(=O)[C@H](CCC(N)=O)NC(=O)[C@H](CCC(=O)O)NC(=O)[C@H](CC(C)C)NC(=O)[C@H](CC(C)C)NC(=O)[C@H](C)NC(=O)[C@@H](NC(=O)[C@@H](NC(=O)[C@H](CCCCN)NC(=O)[C@H](CCC(N)=O)NC(=O)[C@H](CCC(=O)O)NC(=O)[C@H](Cc1c[nH]c2ccccc12)NC(=O)[C@H](CCC(=O)O)NC(=O)[C@H](CCC(N)=O)NC(=O)[C@H](Cc1c[nH]c2ccccc12)NC(C)=O)[C@@H](C)CC)[C@@H](C)O)C(=O)N[C@@H](CCC(N)=O)C(=O)N[C@@H](CCC(N)=O)C(=O)N[C@@H](CCC(=O)O)C(=O)N[C@@H](CCCCN)C(=O)N[C@@H](CC(N)=O)C(=O)N[C@@H](CCC(=O)O)C(=O)N[C@@H](Cc1ccc(O)cc1)C(=O)N[C@@H](CCC(=O)O)C(=O)N[C@@H](CC(C)C)C(=O)N[C@@H](CCC(N)=O)C(=O)N[C@@H](CCCCN)C(=O)N[C@@H](CC(C)C)C(=O)N[C@@H](CC(=O)O)C(=O)N[C@@H](CCCCN)C(=O)N[C@@H](Cc1c[nH]c2ccccc12)C(=O)N[C@@H](C)C(=O)N[C@@H](CO)C(=O)N[C@@H](CC(C)C)C(=O)N[C@@H](Cc1c[nH]c2ccccc12)C(=O)N[C@@H](CCC(=O)O)C(=O)N[C@@H](Cc1c[nH]c2ccccc12)C(=O)N[C@@H](Cc1ccccc1)C(N)=O [T1249],beta-phase half-life relative to T20,[1],nearly three times greater than T20
same,total AUC relative to T20,[1],nearly three times greater than T20
same,acute toxicity (death within 24 hours),[2],not acutely toxic
same,time to equilibration of lymphatic system with the plasma reservoir,[3]; after IV administration,within approximately one hour
same,clearance,[3]; Lymph,0.192 mL/min
same,AUC(0-inf),"[3]; Lymph, averages exclude Rat #1",449 µg·h/mL
same,Cmax,"[3]; Lymph, averages exclude Rat #1",155000 ng/mL
same,AUC(0-t),"[3]; Lymph, averages exclude Rat #1",411 µg·h/mL
same,AUC(0-inf),"[3]; Lymph, averages include Rat #1",390 µg·h/mL
same,Cmax,"[3]; Lymph, averages include Rat #1",133000 ng/mL
same,AUC(0-t),"[3]; Lymph, averages include Rat #1",348 µg·h/mL
same,AUC(0-inf),[3]; Plasma,598 µg·h/mL
same,Cmax,[3]; Plasma,291000 ng/mL
same,clearance,[3]; Plasma,0.13 mL/min
same,AUC(0-t),[3]; Plasma,506 µg·h/mL
same,half-life,[3]; Lymph,1.3 ± 0.27 h
same,half-life,[3]; Plasma,2.6 ± 0.41 h
same,concentration in cerebrospinal fluid (CSF),[4],< 2.0 ng T1249/ml CSF
same,"t½,terminal",[5]; IM (0.8 mg/kg),5.57 h
same,"t½,terminal","[5]; IV (0.8 mg/kg), 0.8 mg/kg",5.35 h
same,"t½,terminal","[5]; SC (0.8 mg/kg), 0.8 mg/kg",4.83 h
same,linearity of pharmacokinetics,"[5]; SC administration, 0.4-1.6 mg/kg",linear pharmacokinetics
same,level at 24 h,"[5]; both sexes, cynomolgus monkey, plasma, 24 hours after SC and IV administration, read-out: quantifiable plasma levels at 24 hours",> 500 ng/mL
same,bioavailability,"[5]; cynomolgus monkey, 0.8 mg/kg, IM (0.8 mg/kg)",~64%
same,bioavailability,"[5]; cynomolgus monkey, 0.8 mg/kg, SC (0.8 mg/kg)",~92%
same,half-life,"[5]; cynomolgus monkey, im, 0.8 mg/kg, IM (0.8 mg/kg)",5.6 h
same,half-life,"[5]; cynomolgus monkey, iv, 0.8 mg/kg, IV (0.8 mg/kg)",5.4 h
same,half-life,"[5]; cynomolgus monkey, sc, 0.4 mg/kg, SC (0.4 mg/kg)",6.23 h
same,half-life,"[5]; cynomolgus monkey, sc, 0.8 mg/kg, SC (0.8 mg/kg)",4.8 h
same,half-life,"[5]; cynomolgus monkey, sc, 1.6 mg/kg, SC (1.6 mg/kg)",5.55 h
same,AUC(0-inf),[5]; [6],59.5 µg·h/mL
same,Cmax,[5]; [6],6370 ng/mL
same,Tmax,[5]; [6],2.32 h
same,AUC(0-t),[5]; [6],56.4 µg·h/mL
same,AUC(0-inf),[5]; [7],92.5 µg·h/mL
same,Cmax,[5]; [7],26700 ng/mL
same,AUC(0-t),[5]; [7],87.4 µg·h/mL
same,AUC(0-inf),[5]; [8],40.9 µg·h/mL
same,Cmax,[5]; [8],3170 ng/mL
same,Tmax,[5]; [8],3.97 h
same,AUC(0-t),[5]; [8],37.5 µg·h/mL
same,AUC(0-inf),[5]; [9],85.3 µg·h/mL
same,Cmax,[5]; [9],6850 ng/mL
same,Tmax,[5]; [9],4.58 h
same,AUC(0-t),[5]; [9],8.12 µg·h/mL
same,AUC(0-inf),[5]; [10],181 µg·h/mL
same,Cmax,[5]; [10],13300 ng/mL
same,Tmax,[5]; [10],4.72 h
same,AUC(0-t),[5]; [10],168 µg·h/mL
same,cytotoxicity in vitro,"Molt 4, CEM cells",No overt evidence of T1249 cytotoxicity
